The text below walks through data of publication PMC10741027, “Risk Assessment of Psychotropic Drugs on Mitochondrial Function Using In Vitro Assays” (Biomedicines, 2023).

The subject of data set [1] is HepG2 cells. As to the kind of experiment: Acute extracellular flux (AEF) assay in intact HepG2 cells (Seahorse XFe96). Format: cell-based, human. Conditions: Homo sapiens.
Data set [2] deals with HepG2 cells. More on the design: method as in PMID 18344530. Conditions: 200 µM, not in Glu media; cited from earlier work.
The test system of data set [3] is rPFO permeabilized HepG2 cells. As to the kind of experiment: Mitochondrial respiratory complexes in rPFO permeabilized HepG2 cells (Seahorse XF). Conditions: Homo sapiens, HepG2, read-out: Pyruvate Respiration AC50.
Data set [4] has as its system HepG2 cells. As to the kind of experiment: Glu/Gal assay: cellular ATP (CellTiter-Glo) after 24 h in glucose or galactose media. Conditions: Homo sapiens, HepG2, 24 h.
Data set [5] has as its system CI. More on the design: method as in PMID 18344530. Conditions: isolated mitochondria; read-out: CI inhibition IC50; cited from earlier work.
For data set [6] the following is noted: literature values, plasma or serum of adult humans when possible; ref 68-88 (per drug, Table 2 Cmax Reference); cited from earlier work.
For data set [7], the system named is CI-linked respiration. Conditions: read-out: concentration inhibiting CI-linked respiration by 50%; rat liver isolated mitochondria; cited from earlier work.
Data set [8] deals with rPFO permeabilized HepG2 cells.
The subject of data set [9] is HepG2 cells.
Data set [10] has as its system CI. Further details: method as in PMID 21120605. Conditions: 50 µM, 18 h incubation, CHO cells; cited from earlier work.
Data set [11] deals with liver mitochondria. More on the design: method as in PMID 1347214. The note with it: rats fed 1% (w/w) for 75 days; cited from earlier work.
The mark [12] stands for this setting: HepG2, minimum effective concentration crossing vehicle control threshold, read-out: MEC ATP Production.
The mark [13] stands for this setting: HepG2, minimum effective concentration crossing vehicle control threshold, read-out: MEC OCR.
Where [14] appears, read: HepG2, minimum effective concentration crossing vehicle control threshold, read-out: MEC Reserve Capacity.
[15] abbreviates: HepG2, concentration at which 50% maximum effect is observed, read-out: AC50 ATP Production.
The mark [16] stands for this setting: HepG2, concentration at which 50% maximum effect is observed, read-out: AC50 ECAR.
[17] abbreviates: HepG2, concentration at which 50% maximum effect is observed, read-out: AC50 OCR.
Setting [18] is: HepG2, concentration at which 50% maximum effect is observed, read-out: AC50 Proton Leak.
The mark [19] stands for this setting: HepG2, concentration at which 50% maximum effect is observed, read-out: AC50 Reserve Capacity.
[20] abbreviates: HepG2, minimum effective concentration crossing vehicle control threshold, read-out: MEC ECAR.
Where [21] appears, read: HepG2, read-out: AC50 ATP Production.
[22] abbreviates: HepG2, read-out: AC50 Proton Leak.
[23] abbreviates: HepG2, read-out: AC50 Reserve Capacity.
Where [24] appears, read: HepG2, read-out: MEC ATP Production.

As usually defined, the Cmax is the maximum level reached in the sampled fluid or tissue. For `O=C1CC2(CCCC2)CC(=O)N1CCCCN1CCN(c2ncccn2)CC1` [Buspirone], the minimal effective concentration in data set [1] (setting [12]) was 80.9 µM; in [1] (setting [13]) it was 4.83 µM; in data set [1] (setting [14]), 8.57 µM; in data set [4] (read-out: Gal MEC), 35.7 µM. Moreover, the AC50 in data set [1] (setting [15]) is over 100 µM; in data set [1] (setting [16]) it was over 100 µM; in data set [1] (setting [17]), over 100 µM; in data set [1] (setting [18]) it was over 100 µM; in data set [1] (setting [19]) it was 43.7 µM; in [3], over 100 µM. For the same compound, the AC50 in data set [4] (read-out: Gal AC50) is 99 µM; in [4] (read-out: Glu AC50), over 100 µM. Further, the “depletion (cytotoxicity) in Gal media” value in data set [2] is 60%. In data set [5], the IC50 was 48 µM. Moreover, the Cmax in data set [6] is 3 nM.

Turning to `CNCCC(Oc1ccc(C(F)(F)F)cc1)c1ccccc1` (stereo not drawn) [Fluoxetine], the minimal effective concentration is 68.6 µM in data set [1] (setting [12]); 67.3 µM in data set [1] (setting [20]); 8.12 µM in data set [1] (setting [13]); 25.2 µM in data set [1] (setting [14]); 12.1 µM in [4] (read-out: Gal MEC); 6.89 µM in data set [4] (read-out: Glu MEC). Also, the AC50 in data set [1] (setting [19]) was found to be 70.4 µM; in data set [4] (read-out: Gal AC50) it was 17.5 µM; in data set [4] (read-out: Glu AC50), 13.3 µM. The IC50 in [7] is 250 µM. Besides, the Cmax in [6] was 40 nM.

For the compound `O=C1Nc2ccc(Cl)cc2C(c2ccccc2Cl)=NC1O` (stereo not drawn) [Lorazepam], the AC50 in [1] (setting [21]) was over 100 µM; in [1] (HepG2, read-out: AC50 ECAR), over 100 µM; in [1] (HepG2, read-out: AC50 OCR), over 100 µM; in [1] (setting [22]) it was 15 µM; in data set [1] (setting [23]) it was over 100 µM; in data set [4] (read-out: Gal AC50) it was over 100 µM. Moreover, in [4] (read-out: Glu AC50), the AC50 was over 100 µM. Moreover, the minimal effective concentration in data set [1] (setting [24]) amounted to 3.2 µM; in [1] (HepG2, read-out: MEC OCR), 63.7 µM; in data set [1] (HepG2, read-out: MEC Proton Leak), 3.14 µM. Further, the “Most sensitive mechanism / response in permeabilized HepG2 assay (OCR)” value in data set [8] is recorded as “did not significantly inhibit any of the ETC complexes”. Besides, the “Effect on cell viability / ATP in Glu and Gal media (in words)” value in data set [9] was “did not exhibit toxicity neither in glucose nor in galactose-grown cells”. In data set [6], the Cmax is 100 nM.

Take `CN1c2ccccc2C(NCCCCCCC(=O)O)c2ccc(Cl)cc2S1(=O)=O` (stereo not drawn) [Tianeptine]: the AC50 in data set [1] (setting [21]) is over 100 µM; in data set [1] (HepG2, read-out: AC50 ECAR), over 100 µM; in [1] (HepG2, read-out: AC50 OCR) it was over 100 µM; in data set [1] (setting [22]), over 100 µM; in data set [1] (setting [23]), 21.6 µM; in data set [4] (read-out: Gal AC50), 57.6 µM. Also, the AC50 in data set [4] (read-out: Glu AC50) is over 100 µM. For the same compound, the minimal effective concentration in data set [1] (setting [24]) was 40.3 µM; in data set [1] (HepG2, read-out: MEC OCR), 5.5 µM; in [1] (HepG2, read-out: MEC Reserve Capacity), 0.182 µM; in data set [4] (read-out: Gal MEC) it was 41.8 µM. The “inhibition of CI activity” value in data set [10] is recorded as about 50%.

On to `CCCC(CCC)C(=O)O` [Valproic acid], for which the minimal effective concentration in [1] (setting [12]) came out at 5200 µM; in data set [1] (setting [20]), 2600 µM; in data set [1] (setting [13]), 520 µM; in data set [1] (HepG2, minimum effective concentration crossing vehicle control threshold, read-out: MEC Proton Leak), 1140 µM; in data set [1] (setting [14]), 3090 µM. Moreover, the AC50 in [1] (setting [15]) was over 10000 µM; in [1] (setting [16]), over 10000 µM; in [1] (setting [17]), over 10000 µM; in data set [1] (setting [18]) it was 9180 µM; in [1] (setting [19]), over 10000 µM; in data set [3] it was over 10000 µM. The AC50 in [4] (read-out: Gal AC50) and in data set [4] (read-out: Glu AC50) was over 10000 µM each time. Further, the “decrease in the respiration rate with substrates feeding CI and CII” value in data set [11] was 30%. Also, the Cmax in data set [6] is 367000 nM.
